IC50 data for 2 compounds are collected here from ChEMBL document CHEMBL1201862, “PubChem BioAssay data set” (2004).

The source made the active and inactive calls. No stated cut-off is given here; in the data, actives have a measured IC50 and inactives only a lower limit.

The target of this assay is Envelope glycoprotein gp160 (Human immunodeficiency virus 1, UniProt Q6QLK5). Put plainly: cell-free HIV fusion peptide-binding blockers – biochemical, uHTS, fluorescence dequenching, […] (AID 1986).
Sequence of Envelope glycoprotein gp160 (Q6QLK5 whole entry, the tested form may be a part): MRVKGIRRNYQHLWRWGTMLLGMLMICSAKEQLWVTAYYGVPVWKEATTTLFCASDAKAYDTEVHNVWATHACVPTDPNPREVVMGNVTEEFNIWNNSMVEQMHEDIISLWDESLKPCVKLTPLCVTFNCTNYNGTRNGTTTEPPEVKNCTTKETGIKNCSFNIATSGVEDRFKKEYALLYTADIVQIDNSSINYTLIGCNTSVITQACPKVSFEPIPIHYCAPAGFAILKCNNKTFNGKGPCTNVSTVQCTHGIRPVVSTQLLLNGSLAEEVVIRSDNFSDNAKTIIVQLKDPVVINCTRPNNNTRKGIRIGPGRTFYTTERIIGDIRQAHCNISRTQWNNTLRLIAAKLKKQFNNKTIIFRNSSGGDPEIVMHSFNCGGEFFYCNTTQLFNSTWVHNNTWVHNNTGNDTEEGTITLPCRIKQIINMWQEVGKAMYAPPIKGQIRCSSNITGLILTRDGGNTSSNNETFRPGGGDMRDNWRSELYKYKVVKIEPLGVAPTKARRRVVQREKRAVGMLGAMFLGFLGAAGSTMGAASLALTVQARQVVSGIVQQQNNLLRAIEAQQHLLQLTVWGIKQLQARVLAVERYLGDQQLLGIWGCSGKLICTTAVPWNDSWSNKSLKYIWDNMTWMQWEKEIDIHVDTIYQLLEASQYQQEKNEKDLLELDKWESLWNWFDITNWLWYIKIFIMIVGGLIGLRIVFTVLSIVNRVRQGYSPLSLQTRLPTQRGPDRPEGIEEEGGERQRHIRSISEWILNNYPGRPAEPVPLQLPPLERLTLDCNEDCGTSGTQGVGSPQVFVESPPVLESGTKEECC

For `NC(=O)Cn1cc(C=C2C(=O)NC(=O)NC2=O)c2ccccc21`, the half-maximal inhibitory concentration (IC50) (as a rule, the concentration that gives 50% inhibition) is 69.2 µM (active). The result for `Cc1ccc(NC(=O)COc2cccc(/C=C3\SC(=S)N(CCC(=O)O)C3=O)c2)cc1Cl` reads 12.2 µM (active).
